Earlier results as cited in US12285420B2 (ACASTI PHARMA U.S., INC., priority 2018, dated 2025).

Experiments:
[1] = man, oral administration
[2] = nimodipine-treated subarachnoid hemorrhage (SAH) patients

Half-life equivalent to earlier elimination rates [1]: 1 to 2 h | Concentration of nimodipine detected in the cerebrospinal fluid [2]: ≤ 12.5 ng/mL
Structure (SMILES): COCCOC(=O)C1=C(C)NC(C)=C(C(=O)OC(C)C)C1c1cccc([N+](=O)[O-])c1 (centres unmarked) [nimodipine, isopropyl 2-methoxyethyl 1,4-dihydro-2,6-dimethyl-4-(m-nitrophenyl)-3,5-pyridinedicarboxylate]
